Target: Kallikrein-1 (Homo sapiens, UniProt P06870)
Assay: Inhibition Assay
Method: Prior to the assay, human TK1 (R&D Systems) was activated by incubation with human trypsin (Calbiochem) in a 1:10,000 ratio for 15 min at 37° C. For assaying TK1 inhibitory activity, activated TK1 (31.25 nM or 1 U/mL) was incubated at 24° C. with 0.1 mM fluorogenic substrate H-Pro-Phe-Arg-AMC (11295 from Bachem) and various concentrations of the test compound in assay buffer. Measurements were performed in a kinetic interval every 2nd minute for 16 min using a Spectramax M5 (Molecular Devices) with the following settings of the wavelength excitation of 350 nm and wavelength emission of 450 nm.

Sequence of Kallikrein-1 (P06870 whole entry): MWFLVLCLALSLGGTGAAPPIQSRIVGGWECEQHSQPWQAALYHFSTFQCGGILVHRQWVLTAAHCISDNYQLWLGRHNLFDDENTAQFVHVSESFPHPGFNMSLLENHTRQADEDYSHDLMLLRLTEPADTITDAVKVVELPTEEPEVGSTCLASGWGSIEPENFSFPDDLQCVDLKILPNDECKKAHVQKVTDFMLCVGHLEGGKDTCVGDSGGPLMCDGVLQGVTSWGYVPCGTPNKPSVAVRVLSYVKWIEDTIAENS

IC50, > 10 µM:
Cc1nc(N2CC3(CC3)C2)ccc1Cn1cc(C(=O)N[C@@H]2CCc3c(C)n[nH]c32)cn1 [US10695334, Example 11]
Cc1nc(N2CC3C(C2)C3(F)F)ccc1Cn1cc(C(=O)N[C@@H]2CCc3c(C)n[nH]c32)c(C)n1 (stereo partly drawn) [US10695334, Example 18]
Cc1nc(N2CC3C(C2)C3(F)F)ncc1Cn1cc(C(=O)N[C@@H]2CCc3c2n[nH]c3C)cn1 (stereo partly drawn) [US10695334, Example 84]
